Experimental data taken from US5972894A, “Peptides having potassium channel opener activity” (Cytran, Inc., priority 1997, dated 1999).
Residues, ends and D or L forms follow the SMILES beside them.

Legend:
rats = test: CPK activity in blood serum 1 hour after coronary occlusion; format: in vivo; details: for CPK Activity in blood serum: 1 hour after coronary occlusion
Procedure: White random-bred male rats weighing approximately 200 g were anesthetized using a light ether administration and then immobilized and artificially ventilated. […] Immediately after ligation, a test substance, positive, control substance, or negative control substance (described below) was administered to a rat through a catheterized femoral vein. Each dose of each test substance or positive or negative control substance was administered to an experimental or control group of 9 test rats. In this study, GE and VT served as test substances, propranolol served as the positive control substance, and physiological saline served as the negative control substance. Each test rat in an experimental group was given a dose of either 0.1, 1.0, or 10.0 milligram GE per kilogram of body weight of the subject animal (mg/kg) or 0.1, 1.0, or 10.0 milligram VT per kilogram of body weight of the animal. Each animal of the positive control group received an intravenous dose of 0.5 mg of β-adrenergic blocking agent, propranolol (Obzidan, Germed, Germany) per kilogram of body weight. Propranolol is commonly used to manage cardiac arrhythmia and there is some evidence that the agent may reduce the extent of ischemic damage to the heart. […] Each animal of the negative control group received physiological saline.
One hour after initiation of the coronary artery occlusion, each test animal was sacrificed, its blood was collected, and the CPK activity in its blood serum was measured. CPK activity was determined by using a standard biochemical method, such as that commercially available from the Lachema Company (Czechia) in its test kit, and by following the manufacturer's process instructions included in the package insert.
As a supplementary control for the possible trauma caused by the surgical procedure, a group of 9 sham-operated rats was included in the study. These test animals were subjected to chest dissection, but not to coronary artery occlusion. These "sham-operated" animals were not treated with any test or control substances and were euthanized 1 hour after surgery. Their blood was then collected for determination of CPK activity.

Intestinal Smooth Muscle = test: Calcium-induced contraction of intestinal smooth muscle specimens; format: cell-based, guinea pigs; details: for Contraction Amplitude, calcium-induced (% of control level): 20 mM CaCl2
Procedure: GE and VT served as test substances in this experiment. GE was tested at concentrations of 10^-6 g/ml and 10^-5 g/ml (4.9×10^-6 M and 4.9×10^-5 M, respectively), and VT was tested at concentrations 10^-6 g/ml and 10^-5 g/ml (4.58×10^-6 and 4.58×10^-5 M, respectively).
Small intestinal SMS samples from ten guinea pigs were surgically isolated and prepared as follows. First, the SMS samples were preincubated for 40 minutes in an organ bath holding a standard Krebs-Henseleit physiological salt solution containing calcium chloride (CaCl2) at concentration of 2.5 mM. Next, each SMS was washed with a calcium-free solution of Krebs-Henseleit and incubated in a calcium-free Krebs-Henseleit solution for 40 minutes. Contractile activity was pre-induced in each SMS by first perfusing the organ bath containing the sample for 15 minutes with a Krebs-Henseleit solution containing 30 mM KCl and then perfusing the bath for an additional 15 minutes with a Krebs-Henseleit solution containing 20 mM CaCl2. Finally, each SMS sample was washed with a calcium-free Krebs-Henseleit solution for 40 minutes. In these experiments, measurements of the contractile response of the SMS following the addition of a Krebs-Henseleit solution containing 20 mM calcium served as the control (baseline). Changes in contraction amplitudes were recorded by using the method set forth in Step 1 of Example 2, above.
After washing the SMS as outlined in Step 1, the organ bath with the SMS sample was perfused for 15 minutes with the solution of a test or reference substance. In this instance, GE and VT served as the test substances, and each dipeptide was tested at a concentration of 10^-6 g/ml.
Following perfusion with the test or reference substance, the SMS sample/organ bath was perfused for 10 minutes with a Krebs-Henseleit solution containing 30 mM KCl and then perfused for an additional 10 minutes with a Krebs-Henseleit solution containing 20 mM CaCl2. Next, each SMS sample was washed with a calcium-free Krebs-Henseleit solution for 40 minutes. The effect of the test or reference substance on the SMS sample was evaluated by measuring the contractile response (i.e., the change in contraction amplitude) of the sample following the addition of the Krebs-Henseleit solution containing 20 mM CaCl2.
Next, the organ bath was perfused for 10 minutes with a Krebs-Henseleit solution containing 30 mM KCl and then for additional 10 minutes with a Krebs-Henseleit solution containing 20 mM CaCl2. The effect of the respective test or reference substance was evaluated a second time by measuring the change in the contraction amplitude of the SMS following the addition of the Krebs-Henseleit solution containing 20 mM CaCl2. […]

With `NCC(=O)N[C@@H](CCC(=O)O)C(=O)O` [GE, L-Glycyl-L-Glutamic acid] (H-Gly-Glu-OH) the “CPK Activity in blood serum” value (rats; 0.1 mg/kg i.v.) was 0.062 (±0.013) mcCat/L, the “CPK Activity in blood serum” value (rats; 1.0 mg/kg i.v.) was 0.056 (±0.014) mcCat/L and the “CPK Activity in blood serum” value (rats; 10.0 mg/kg i.v.) was 0.110 (±0.024) mcCat/L. The “extent of induced myocardial ischemic lesions (CPK in serum vs negative control)” value (rats; 0.1, 1.0, and 10.0 milligram) was “diminish the extent of induced myocardial ischemic lesions”, the “effect on calcium-induced intestinal smooth muscle tonic contraction” value (Intestinal Smooth Muscle; 10^-6 and 10^-5 g/ml) was “significantly reduced the amplitude” and the “Contraction Amplitude, calcium-induced (% of control level)” value (Intestinal Smooth Muscle; Application I, 10^-6 g/ml) was 51.08%. The “Contraction Amplitude, calcium-induced (% of control level)” value (Intestinal Smooth Muscle; Application II, 10^-5 g/ml) was 33.14%.
